# Measured values reported in patent US20040082815A1, “Benzophenones, the production thereof and their use for controlling plant pathogenic fungi” (priority 2001, published 2004).
# System: Erysiphe graminis forma specialis tritici
# Assay: Activity against powdery mildew of wheat, protective spray test on wheat seedlings cv. Kanzler
# Type: in vivo, Erysiphe graminis forma specialis tritici (on wheat)
# Conditions: sprayed to runoff 24 h before inoculation, rated visually after 7 days, untreated plants 90% disease
# Protocol: The active ingredients, separately or jointly, were prepared as a 10% strength emulsion in a mixture of 70% by weight of cyclohexanone, 20% by weight of Nekanil® LN (Lutensol® AP6, wetter with emulsifying and dispersing action based on ethoxylated alkylphenols) and 10% by weight of Wettol® EM (nonionic emulsifier based on ethoxylated castor oil) and diluted with water to give the desired concentration.
# Use Example 1—Activity Against Powdery Mildew of Wheat (Erysiphe graminis f. sp. […] f. sp. tritici)
# Leaves of wheat seedlings cv. “Kanzler” which have grown in pots were sprayed to runoff point with aqueous preparation of active ingredient made with a stock solution composed of 10% of active ingredient, 63% of cyclohexanone and 27% of emulsifier, and, 24 hours after the spray coating had dried on, dusted with spores of powdery mildew of wheat (Erysiphe graminis forma specialis tritici). The test plants were subsequently placed in a greenhouse at temperatures between 20 and 24° C. and a relative atmospheric humidity of 60 to 90%. After 7 days, the extent of the mildew development was determined visually in % disease of the total leaf area.
compound,measurement,setting,value
"COc1cc(C)c(C(=O)c2c(F)ccc(F)c2C)c(OC)c1OC [I.5-02, 2,5-Difluoro-2′,6-dimethyl-4′,5′,6′-trimethoxybenzophenone]","extent of mildew development, % disease of the total leaf area",4 ppm,1%
same,"extent of mildew development, % disease of the total leaf area",16 ppm,no disease
"COc1cc(C)c(C(=O)c2c(Cl)ccc(Cl)c2C)c(OC)c1OC [I.1-02, 2,5-Dichloro-2′,6-dimethyl-4′,5′,6′-trimethoxybenzophenone]","extent of mildew development, % disease of the total leaf area",4 ppm,no disease
same,"extent of mildew development, % disease of the total leaf area",16 ppm,no disease
